Results as given in patent US7605280B2, “Anthraquinone and its derivatives” (Biostatus Limited, priority 1998, dated 2009).

Tested on: viable HL60 cells
Test: Flow cytometric analysis of DRAQ5 accumulation (Cytometers A and B)
Type: cell-based, human
Conditions: Cytometer B, low power 633 nm, 1 h exposure
Protocol: HL60 (human promyelocytic-leukaemia cell line) and SUD4 (human B cell lymphoma cell line) were grown as suspension cultures-in-RMPI medium with 10% foetal calf serum, 1 mM glutamine and antibiotics and incubated at 37° C. in an atmosphere of 5% CO2 in air. For flow cytometry experiments, asynchronously growing suspension cultures were diluted to 2.5-4>10^5 cells/ml at 2 h prior to drug treatment. Cell cycle-perturbed populations were obtained by treating SUD4 cells with the drug etoposide (VP-16-213) at 0.25 μM for 18h. Cells were treated with DRAQ5 and FDA as described above. Cell concentrations were determined using a Coulter counter and cell cycle distribution determined using an algorithm for the normal distibution of fluorescence intensity profiles for fluorochrome stained G1 and G2 cells.
Cells were analysed using one of four flow cytometers according to the excitation requirements. • Cytometer A: Single beam high power 647 nm krypton laser excitation: The system was a custom-built cytometer and incorporated an Innova 3000K krypton laser (Coherent Corp., Palo Alto, Calif., USA) tuned to the 647 nm line. Forward light scatter, 90° light scatter and fluorescence emissions were collected for 1×10^4 cells using the 90° light scatter parameter as the master signal. […] Forward and 90° light scatter were analysed for the identification of cell debris. […]

CN(C)CCNc1ccc(O)c2c1C(=O)c1c(O)ccc(NCCN(C)C)c1C2=O [DRAQ5]
lower end of linear dose-response of 633 nm derived DRAQ5 signal: approximately 2.5 μM
